Reference: EP1228097B1, “ANTIMICROBIAL ACTIVITY OF THE FIRST CATIONIC CLUSTER OF HUMAN LACTOFERRIN” (priority 1999, dated 2005)

Assays:
L. monocytogenes = experiment: in vitro assay for antibacterial activity (number of viable bacteria); format: cell-based, Listeria monocytogenes strain EGD; conditions: for killing of L. monocytogenes (result in words): dose-effect studies, proteins in PBS-Tw, synthetic peptides in NaPB-TSB
Protocol: (§1) Listeria monocytogenes strain EGD, Klebsiella pneumoniae (43816), and Escherichia coli O54 were purchased from the American Type Culture Collection (Rockville, MD). Antibiotic resistant S. aureus, K. pneumoniae and E. coli were cultured overnight in nutrient broth (Oxoid, Basingstoke, UK) at 37°C, diluted in tryptase soya broth (TSB, Oxoid) and cultured for an additional 2 h in a shaking waterbath at 37 °C. L. monocytogenes was cultured overnight in brain heart infusion broth (BHI, Oxoid) at 37°C, diluted and cultured for an additional 2 h in a shaking waterbath at 37°C.
(§2) In short, bacteria were washed with phosphate-buffered saline (PBS) (pH 7.4) and diluted to a concentration of approximately 2x10^6 CFU/ml of phosphate-buffered saline (pH 6.0) supplemented with 0.1 % (v/v) Tween-20 (hereafter designated as PBS-Tw). […] At various time intervals (range 0-4 h) after incubation at 37 °C the number of viable bacteria was determined microbiologically. As negative controls, bovine serum albumin (BSA; Sigma) or no peptide were included.

[1] = test system: antibiotic resistant S. aureus; experiment: as above; format: cell-based, Staphylococcus aureus strain 2141; conditions: for killing of antibiotic resistant S. aureus (result in words): dose-effect studies, proteins in PBS-Tw, synthetic peptides in NaPB-TSB
Protocol: as §1, §2

K. pneumoniae = experiment: as above; format: cell-based, Klebsiella pneumoniae (43816); conditions: proteins in PBS-Tw, synthetic peptides in NaPB-TSB
Protocol: as §1, §2

E. coli = experiment: as above; format: cell-based, Escherichia coli O54; conditions: synthetic peptides in NaPB-TSB, 1 h at 37 °C
Protocol: as §1
[…] […] At various time intervals (range 0-4 h) after incubation at 37 °C the number of viable bacteria was determined microbiologically. As negative controls, bovine serum albumin (BSA; Sigma) or no peptide were included.

bacteria = experiment: in vitro assay for antibacterial activity, bacteria not specified; format: cell-based; conditions: L. monocytogenes, antibiotic resistant S. aureus, K. pneumoniae, E. coli (FIGS. 2A-2D); 7 µM, 1 h at 37 °C
Protocol: as §1
as §2, with “At various time intervals (range 0-4 h) after incubation at 37 °C the number of viable bacteria was determined microbiologically.” left out

[2] = test system: antibiotic resistant S. aureus; experiment: experimental thigh muscle infection; format: in vivo, mice; conditions: for antibacterial activity in infected mice (result in words): mice with thigh muscle infection with antibiotic resistant S. aureus; for amount with which maximum effects on the number of viable bacteria were seen: mice infected with antibiotic resistant S. aureus, i.v. injection 24 h after infection, within 24 h after injection
Protocol: All animal studies were done in compliance with the LUMC Ethical Committee and Dutch laws related to the conduct of animal experiments. […] In short, specific pathogen-free, male, Swiss mice weighing 20-25 g (Broekman Institute, Someren, The Netherlands) were anaesthetized with a single intraperitoneal injection of 0.1 ml of saline containing 1 mg fluanisone and 0.03 mg fentanyl citrate (Hypnorm, Janssen Pharmaceutics, Tilburg, The Netherlands). Preceding scintigraphy, a subcutaneous injection of 0.1 ml, containing 0.2 mg diazepam (Valium, Hoffmann-La Roche, Mijdrecht. The Netherlands) was administered. Immediately thereafter, 1x10^7 CFU of antibiotic resistant S. aureus or K. pneumoniae in 0.1 ml of saline were injected into the right thigh muscle. […] As a control, mice were injected with 0.2 ml of saline containing BSA or saline without any peptide. […] Next, the infected thigh muscles were removed and, after weighing, homogenized in 4 ml of PBS. Appropriate dilutions of the homogenates were applied onto diagnostic sensitivity test plates (Oxoid), and the number of colonies counted after an overnight culture at 37 °C. Results are expressed as the number of CFUs per gram of infected tissue. All negative cultures were assigned the values of 100 CFU/ml of homogenate, which is the lower limit of detection.

[3] = pharmacology of 99mTc-labelled protein/peptides by scintigraphy (clearance, organ uptake, amount at the site of infection); format: in vivo, mice; conditions: for mean t1/2 (removal from the circulation): mouse, in vivo, iv; for Uptake by bladder / Uptake by kidneys / Uptake by liver: 1 nmole 99mTc-labelled, mice infected with antibiotic resistant S. aureus
Text: Labeling yields amounted to 88-95%.

## hLF(2-11): residues 2 to 11 inclusively from the N-terminal region of hLF (RRRSVQWCAV; UniProt P02788 21-30, looked up, fragment)
L. monocytogenes
  killing of L. monocytogenes (result in words): considerably (p<0.05) more efficient than hLF(3-11)
[1]
  killing of antibiotic resistant S. aureus (result in words): considerably (p<0.05) more efficient than hLF(3-11)
K. pneumoniae
  killing of K. pneumoniae (result in words): killed
E. coli
  killing of E. coli by synthetic peptides (result in words): killed
bacteria
  bactericidal activity against the various bacteria: displayed bactericidal activity

## hLF(5-11): synthetic fragment of hLF(1-11): residues 5-11 of hLF (SVQWCAV; UniProt P02788 24-30, looked up, fragment)
bacteria
  bactericidal activity against the various bacteria: ineffective

## hLF(6-11): synthetic fragment of hLF(1-11): residues 6-11 of hLF (VQWCAV; UniProt P02788 25-30, looked up, fragment)
bacteria
  bactericidal activity against the various bacteria: ineffective

## hLF(4-11): synthetic fragment of hLF(1-11): residues 4-11 of hLF (RSVQWCAV; UniProt P02788 23-30, looked up, fragment)
bacteria
  bactericidal activity against the various bacteria: displayed bactericidal activity
[2]
  antibacterial activity in infected mice (result in words): some antibacterial activity
[3]
  mean t1/2 (removal from the circulation): approximately 1 min

## hLF(3-11): synthetic fragment of hLF(1-11): residues 3-11 of hLF (RRSVQWCAV; UniProt P02788 22-30, looked up, fragment)
L. monocytogenes
  killing of L. monocytogenes (result in words): significantly (p<0.05) more efficient than hLF(4-11)
[1]
  killing of antibiotic resistant S. aureus (result in words): significantly (p<0.05) more efficient than hLF(4-11)
K. pneumoniae
  killing of K. pneumoniae (result in words): killed
E. coli
  killing of E. coli by synthetic peptides (result in words): killed
bacteria
  bactericidal activity against the various bacteria: displayed bactericidal activity

## FQWQRNMRKVR [hLF(21-31), Mr 1,548; includes the second cationic domain, reference compound]
[2]
  amount with which maximum effects on the number of viable bacteria were seen: 10 nmol
  antibacterial activity in infected mice (result in words): less effective than hLF(1-11)
[3]
  mean t1/2 (removal from the circulation): ~2 min

## GRRRRSVQWCA [hLF(1-11), Mr 1,374]
L. monocytogenes; L. monocytogenes, FIGS. 3A-3C
  bactericidal efficiency relative to hLF(21-31): at least ten times more (p<0.05) efficient than hLF(21-31)
L. monocytogenes
  killing of L. monocytogenes (result in words): considerably (p<0.05) more efficient than hLF(3-11)
[1]; antibiotic resistant S. aureus, FIGS. 3A-3C
  bactericidal efficiency relative to hLF(21-31): at least ten times more (p<0.05) efficient than hLF(21-31)
[1]
  killing of antibiotic resistant S. aureus (result in words): considerably (p<0.05) more efficient than hLF(3-11)
K. pneumoniae
  killing of K. pneumoniae (result in words): killed
E. coli
  killing of E. coli by synthetic peptides (result in words): killed
bacteria
  bactericidal activity against the various bacteria: displayed bactericidal activity
[2]
  amount with which maximum effects on the number of viable bacteria were seen: 0.1 nmol
  antibacterial activity in infected mice (result in words): much more effective than hLF(4-11)
[3]; interval 1 min
  Uptake by bladder: 10±1.5 % ID
  Uptake by kidneys: 18±3.8 % ID
  Uptake by liver: 20±1.6 % ID
[3]; interval 15 min
  Uptake by bladder: 11±7.5 % ID
  Uptake by kidneys: 21±9.3 % ID
  Uptake by liver: 20±4.9 % ID
[3]; interval 30 min
  Uptake by bladder: 21±5.7 % ID
  Uptake by kidneys: 17±5.7 % ID
  Uptake by liver: 20±1.6 % ID
[3]; interval 60 min
  Uptake by bladder: 22±5.6 % ID
  Uptake by kidneys: 14±0.4 % ID
  Uptake by liver: 27±0.6 % ID
[3]
  mean t1/2 (removal from the circulation): ~9 min
[3]; within the first min after injection of 1 nmole, antibiotic resistant S. aureus-infected mice
  amount of radiolabeled peptide at the site of infection: 1-1.5 % of injected dose (ID)
